Measured values reported in US10294202B2, “Pyrrolidinones as herbicides” (FMC Corporation, priority 2013, dated 2019).

Experiments:
[1] = system: oilseed rape; assay: Test C pre-/postemergence herbicide test; format: in vivo, Brassica napus
Summary of the method: (§1)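 Two application timings ran in parallel with identically formulated test chemicals (non-phytotoxic solvent, surfactant included): spray on seeded loam–sand soil, and spray on emerged plants 2 to 18 cm high. Evaluation at 13 to 15 days compared each species with controls, rated from 0 up to 100.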

[2] = system: corn; assay: Test C pre-/postemergence herbicide test; format: in vivo, Zea mays
Summary of the method: as §1

[3] = system: barnyardgrass; assay: Test B flooded paddy test; format: in vivo, Echinochloa crus-galli; details: 500 g ai/ha, Flood; scale of 0 to 100 where 0 is no effect and 100 is complete control
Summary of the method: (§2)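 First, plants reach the 2-leaf stage; next, pots are flooded to 3 cm and compound is delivered into the water; finally, after 13 to 15 greenhouse days at constant depth, injury is graded visually from 0 to 100 against controls.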

[4] = system: corn; assay: Test A pre-/postemergence herbicide test; format: in vivo, Zea mays; details: Postemergence
Summary of the method: (§3)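 Directed soil spray to seeded pots (preemergence) or spray onto one- to two-leaf seedlings 2–10 cm tall (postemergence); loam/sand substrate throughout. Evaluated visually after about 10 days against untreated plants, 0 = no effect, 100 = complete control.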

[5] = system: pigweed; assay: Test A pre-/postemergence herbicide test; format: in vivo, Amaranthus retroflexus
Summary of the method: as §3

[6] = system: ducksalad; assay: Test B flooded paddy test; format: in vivo, Heteranthera limosa; details: 500 g ai/ha, Flood; scale of 0 to 100 where 0 is no effect and 100 is complete control
Summary of the method: as §2

[7] = system: foxtail, giant; assay: Test C pre-/postemergence herbicide test; format: in vivo, Setaria faberii
Summary of the method: as §1

[8] = system: rice; assay: Test B flooded paddy test; format: in vivo, Oryza sativa; details: 500 g ai/ha, Flood; scale of 0 to 100 where 0 is no effect and 100 is complete control
Summary of the method: as §2

[9] = system: barnyardgrass; assay: Test A pre-/postemergence herbicide test; format: in vivo, Echinochloa crus-galli
Summary of the method: as §3

[10] = system: nutsedge, yellow; assay: Test C pre-/postemergence herbicide test; format: in vivo, Cyperus esculentus
Summary of the method: as §1

[11] = system: soybean; assay: Test C pre-/postemergence herbicide test; format: in vivo, Glycine max
Summary of the method: as §1

[12] = system: barnyardgrass; assay: Test C pre-/postemergence herbicide test; format: in vivo, Echinochloa crus-galli
Summary of the method: as §1

[13] = Postemergence, 31 g ai/ha, scale 0 to 100 (0 no effect, 100 complete control)
[14] = Postemergence, 62 g ai/ha, scale 0 (no effect) to 100 (complete control)
[15] = Postemergence, 125 g ai/ha, scale 0 to 100 (0 no effect, 100 complete control)
[16] = Postemergence, 250 g ai/ha, scale 0 to 100 (0 no effect, 100 complete control)
[17] = Preemergence, 31 g ai/ha, scale 0 to 100, 0 is no effect and 100 is complete control
[18] = Preemergence, 62 g ai/ha, scale 0 to 100 (0 no effect, 100 complete control)
[19] = Preemergence, 125 g ai/ha, scale 0 to 100 (0 no effect, 100 complete control)
[20] = 125 g ai/ha, 0 to 100 scale, 0 is no effect, 100 is complete control
[21] = 500 g ai/ha, 0 to 100 scale (0 no effect, 100 complete control)
[22] = Postemergence, 125 g ai/ha, visual rating on 0 to 100 scale (0 no effect, 100 complete control), approx. 10 days
[23] = Postemergence, 500 g ai/ha, 0 to 100 scale (0 no effect, 100 complete control)
[24] = Preemergence, 125 g ai/ha, 0 to 100 scale where 0 is no effect and 100 is complete control
[25] = preemergence, 500 g ai/ha, 0 to 100 scale, 0 is no effect and 100 is complete control
[26] = Postemergence, 125 g ai/ha, 0 to 100 scale, 0 is no effect, 100 is complete control

In the case of `O=C1NCC(c2cccc(Cl)c2)C1C(=O)Nc1cccc(F)c1F` (racemic) [Compound 275], the “Plant response rating, Oilseed Rape” value [1, 13] is reported as 5, the “Plant response rating, Oilseed Rape” value [1, 14] is reported as 5 and the “Plant response rating, Oilseed Rape” value [1, 15] is reported as 35. For the same compound, the “Plant response rating, Oilseed Rape” value [1, 16] was 45, the “Oilseed Rape plant response rating” value [1, 17] was 0 and the “Oilseed Rape plant response rating” value [1, 18] was 50. The “Plant response rating, Oilseed Rape” value [1, 19] was 90, the “Plant response rating (scale of 0 to 100), Oilseed Rape” value ([1]; Preemergence, 250 g ai/ha) was 90 and the “Plant response rating, Corn” value [2, 13] was 0. For the same compound, the “Plant response rating, Corn” value [2, 14] was 0, the “Plant response rating, Corn” value [2, 15] was 0 and the “Plant response rating, Corn” value [2, 16] was 55. The “Corn plant response rating” value [2, 17] was 0, the “Corn plant response rating” value [2, 18] was 10 and the “Plant response rating, Corn” value [2, 19] was 75. For the same compound, the “Plant response rating (scale of 0 to 100), Corn” value ([2]; Preemergence, 250 g ai/ha) was 75, the “Plant response rating, Barnyardgrass” value [3] was 85 and the “Plant response rating, Corn” value [4, 20] was 40. The “Plant response rating, Corn” value [4, 21] was 90, the “Plant response rating, Pigweed” value [5, 22] was 30 and the “Plant response rating, Pigweed” value [5, 23] was 40. The “Plant response rating, Pigweed” value [5, 24] was 20, the “Plant response rating, Pigweed” value [5, 25] was 30 and the “Plant response rating, Ducksalad” value [6] was 100. The “Plant response rating, Foxtail, Giant” value [7, 13] was 10, the “Plant response rating, Foxtail, Giant” value [7, 14] was 75 and the “Plant response rating, Foxtail, Giant” value [7, 15] was 35. For the same compound, the “Plant response rating, Foxtail, Giant” value [7, 16] was 90, the “Foxtail, Giant plant response rating” value [7, 17] was 90 and the “Foxtail, Giant plant response rating” value [7, 18] was 95. The “Plant response rating, Foxtail, Giant” value [7, 19] was 98, the “Plant response rating (scale of 0 to 100), Foxtail, Giant” value ([7]; Preemergence, 250 g ai/ha) was 100 and the “Plant response rating, Rice” value [8] was 0. For the same compound, the “Plant response rating, Barnyardgrass” value [9, 26] was 90, the “Plant response rating, Barnyardgrass” value [9, 23] was 90 and the “Plant response rating, Barnyardgrass” value [9, 24] was 90. The “Plant response rating, Barnyardgrass” value [9, 25] was 90, the “Plant response rating, Nutsedge, Yellow” value [10, 13] was 0 and the “Plant response rating, Nutsedge, Yellow” value [10, 14] was 0. The “Plant response rating, Nutsedge, Yellow” value [10, 15] was 0, the “Plant response rating, Nutsedge, Yellow” value [10, 16] was 20 and the “Nutsedge, Yellow plant response rating” value [10, 17] was 45. For the same compound, the “Nutsedge, Yellow plant response rating” value [10, 18] was 25, the “Plant response rating, Nutsedge, Yellow” value [10, 19] was 35 and the “Plant response rating (scale of 0 to 100), Nutsedge, Yellow” value ([10]; Preemergence, 250 g ai/ha) was 100. The “Plant response rating, Soybean” value [11, 13] was 0, the “Plant response rating, Soybean” value [11, 14] was 0 and the “Plant response rating, Soybean” value [11, 15] was 0. The “Plant response rating, Soybean” value [11, 16] was 10, the “Soybean plant response rating” value [11, 17] was 0 and the “Soybean plant response rating” value [11, 18] was 0. For the same compound, the “Plant response rating, Soybean” value [11, 19] was 0, the “Plant response rating (scale of 0 to 100), Soybean” value ([11]; Preemergence, 250 g ai/ha) was 15 and the “Plant response rating, Barnyardgrass” value [12, 13] was 30. The “Plant response rating, Barnyardgrass” value [12, 14] was 60, the “Plant response rating, Barnyardgrass” value [12, 15] was 75 and the “Plant response rating, Barnyardgrass” value [12, 16] was 85. The “Barnyardgrass plant response rating” value [12, 17] was 80, the “Barnyardgrass plant response rating” value [12, 18] was 95 and the “Plant response rating, Barnyardgrass” value [12, 19] was 95. For the same compound, the “Plant response rating (scale of 0 to 100; 0 is no effect, 100 is complete control), Barnyardgrass” value ([12]; Preemergence, 250 g ai/ha) was 98.

In the case of `O=C1NCC(c2cc(F)cc(F)c2)C1C(=O)Nc1ccc(F)cc1F` (racemic) [Compound 278], the “Plant response rating, Oilseed Rape” value [1, 13] is reported as 0, the “Plant response rating, Oilseed Rape” value [1, 14] is reported as 0 and the “Plant response rating, Oilseed Rape” value [1, 15] is reported as 5. For the same compound, the “Plant response rating, Oilseed Rape” value [1, 16] was 0, the “Oilseed Rape plant response rating” value [1, 17] was 0 and the “Oilseed Rape plant response rating” value [1, 18] was 0. For the same compound, the “Plant response rating, Oilseed Rape” value [1, 19] was 0, the “Plant response rating (scale of 0 to 100), Oilseed Rape” value ([1]; Preemergence, 250 g ai/ha) was 5 and the “Plant response rating, Corn” value [2, 13] was 0. The “Plant response rating, Corn” value [2, 14] was 0, the “Plant response rating, Corn” value [2, 15] was 0 and the “Plant response rating, Corn” value [2, 16] was 0. For the same compound, the “Corn plant response rating” value [2, 17] was 0, the “Corn plant response rating” value [2, 18] was 0 and the “Plant response rating, Corn” value [2, 19] was 0. For the same compound, the “Plant response rating (scale of 0 to 100), Corn” value ([2]; Preemergence, 250 g ai/ha) was 5, the “Plant response rating, Barnyardgrass” value [3] was 60 and the “Plant response rating, Corn” value [4, 20] was 0. The “Plant response rating, Corn” value [4, 21] was 0, the “Plant response rating, Pigweed” value [5, 22] was 0 and the “Plant response rating, Pigweed” value [5, 23] was 10. The “Plant response rating, Pigweed” value [5, 24] was 0, the “Plant response rating, Pigweed” value [5, 25] was 0 and the “Plant response rating, Ducksalad” value [6] was 100. The “Plant response rating, Foxtail, Giant” value [7, 13] was 10, the “Plant response rating, Foxtail, Giant” value [7, 14] was 10 and the “Plant response rating, Foxtail, Giant” value [7, 15] was 40. The “Plant response rating, Foxtail, Giant” value [7, 16] was 75, the “Foxtail, Giant plant response rating” value [7, 17] was 80 and the “Foxtail, Giant plant response rating” value [7, 18] was 90. The “Plant response rating, Foxtail, Giant” value [7, 19] was 95, the “Plant response rating (scale of 0 to 100), Foxtail, Giant” value ([7]; Preemergence, 250 g ai/ha) was 100 and the “Plant response rating, Rice” value [8] was 0. For the same compound, the “Plant response rating, Barnyardgrass” value [9, 26] was 80, the “Plant response rating, Barnyardgrass” value [9, 23] was 90 and the “Plant response rating, Barnyardgrass” value [9, 24] was 80. For the same compound, the “Plant response rating, Barnyardgrass” value [9, 25] was 90, the “Plant response rating, Nutsedge, Yellow” value [10, 13] was 0 and the “Plant response rating, Nutsedge, Yellow” value [10, 14] was 0. For the same compound, the “Plant response rating, Nutsedge, Yellow” value [10, 15] was 0, the “Plant response rating, Nutsedge, Yellow” value [10, 16] was 15 and the “Nutsedge, Yellow plant response rating” value [10, 17] was 0. For the same compound, the “Nutsedge, Yellow plant response rating” value [10, 18] was 0, the “Plant response rating, Nutsedge, Yellow” value [10, 19] was 5 and the “Plant response rating (scale of 0 to 100), Nutsedge, Yellow” value ([10]; Preemergence, 250 g ai/ha) was 5. The “Plant response rating, Soybean” value [11, 13] was 50, the “Plant response rating, Soybean” value [11, 14] was 55 and the “Plant response rating, Soybean” value [11, 15] was 40. The “Plant response rating, Soybean” value [11, 16] was 15, the “Soybean plant response rating” value [11, 17] was 0 and the “Soybean plant response rating” value [11, 18] was 0. The “Plant response rating, Soybean” value [11, 19] was 10, the “Plant response rating (scale of 0 to 100), Soybean” value ([11]; Preemergence, 250 g ai/ha) was 10 and the “Plant response rating, Barnyardgrass” value [12, 13] was 0. For the same compound, the “Plant response rating, Barnyardgrass” value [12, 14] was 10, the “Plant response rating, Barnyardgrass” value [12, 15] was 55 and the “Plant response rating, Barnyardgrass” value [12, 16] was 75. The “Barnyardgrass plant response rating” value [12, 17] was 65, the “Barnyardgrass plant response rating” value [12, 18] was 90 and the “Plant response rating, Barnyardgrass” value [12, 19] was 95. The “Plant response rating (scale of 0 to 100; 0 is no effect, 100 is complete control), Barnyardgrass” value ([12]; Preemergence, 250 g ai/ha) was 100.
